Laboratory results as given in ChEMBL document CHEMBL1201862, “PubChem BioAssay data set” (2004).
Values joined by “and” are separate entries in the source; they are usually repeats but may differ in a detail not shown here. Equal entries are not always repeated.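 1) Cells in 96-well plates. 2) Compound, 48 h, 5 concentrations. 3) Linear interpolation between surrounding doses. 4) Unreached endpoint = highest concentration. GI50 marks 50% less growth.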 Active and inactive are the calls of the source. Cut-off read from the data, not from the text of the source: active = GI50 up to about 1.1 µM and inactive = higher.

Key:
Assay in all cases: inhibition of tumour cell growth, NCI panel, 48 h
NCI-H226 = tested on: NCI-H226
SW-620 = tested on: SW-620
MCF7 = tested on: MCF7
A498 = tested on: A498
MDA-MB-231 = tested on: MDA-MB-231
SF-295 = tested on: SF-295
UO-31 = tested on: UO-31
HCT-116 = tested on: HCT-116
SK-OV-3 = tested on: SK-OV-3
NCI-H23 = tested on: NCI-H23
HT-29 = tested on: HT-29
HCC 2998 = tested on: HCC 2998
SK-MEL-2 = tested on: SK-MEL-2
PC-3 = tested on: PC-3
A549 = tested on: A549
CAKI-1 = tested on: CAKI-1
U-251 = tested on: U-251
HOP-92 = tested on: HOP-92
TK-10 = tested on: TK-10
SK-MEL-5 = tested on: SK-MEL-5
UACC-257 = tested on: UACC-257
HL-60 = tested on: HL-60
HCT-15 = tested on: HCT-15
SF-539 = tested on: SF-539
DU-145 = tested on: DU-145
MDA-MB-435 = tested on: MDA-MB-435
CCRF-CEM = tested on: CCRF-CEM
LOX IMVI = tested on: LOX IMVI
KM12 = tested on: KM12
RXF 393 = tested on: RXF 393
SNB-19 = tested on: SNB-19
COLO 205 = tested on: COLO 205
OVCAR-5 = tested on: OVCAR-5
M14 = tested on: M14
SK-MEL-28 = tested on: SK-MEL-28
ACHN = tested on: ACHN
K562 = tested on: K562
SF-268 = tested on: SF-268
NCI/ADR-RES = tested on: NCI/ADR-RES
MOLT-4 = tested on: MOLT-4
MDA-N = tested on: MDA-N
786-0 = tested on: 786-0
SN12C = tested on: SN12C
NCI-H460 = tested on: NCI-H460
OVCAR-4 = tested on: OVCAR-4
RPMI-8226 = tested on: RPMI-8226
OVCAR-8 = tested on: OVCAR-8
UACC-62 = tested on: UACC-62
SR = tested on: SR
EKVX = tested on: EKVX
IGROV-1 = tested on: IGROV-1
OVCAR-3 = tested on: OVCAR-3
Malme-3M = tested on: Malme-3M
HOP-62 = tested on: HOP-62
SNB-75 = tested on: SNB-75
NCI-H522 = tested on: NCI-H522
Hs-578T = tested on: Hs-578T

SMILES: c1cc2nnnn2nc1N1CCCC1
- GI50 (NCI-H226): > 100 µM (inactive)
- GI50 (SW-620): > 100 µM (inactive)
- GI50 (MCF7): > 100 µM (inactive)
- GI50 (A498): > 100 µM (inactive)
- GI50 (MDA-MB-231): > 100 µM (inactive)
- GI50 (SF-295): > 100 µM (inactive)
- GI50 (UO-31): > 100 µM (inactive)
- GI50 (HCT-116): > 100 µM (inactive)
- GI50 (SK-OV-3): > 100 µM (inactive)
- GI50 (NCI-H23): > 100 µM (inactive)
- GI50 (HT-29): > 100 µM (inactive)
- GI50 (HCC 2998): > 100 µM (inactive)
- GI50 (SK-MEL-2): > 100 µM (inactive)
- GI50 (PC-3): > 100 µM (inactive)
- GI50 (A549): > 100 µM (inactive)
- GI50 (CAKI-1): > 100 µM (inactive)
- GI50 (U-251): > 100 µM (inactive)
- GI50 (HOP-92): > 100 µM (inactive)
- GI50 (TK-10): > 100 µM (inactive)
- GI50 (SK-MEL-5): > 100 µM (inactive)
- GI50 (UACC-257): > 100 µM (inactive)
- GI50 (HL-60): > 100 µM (inactive)
- GI50 (HCT-15): > 100 µM
- GI50 (SF-539): > 100 µM (inactive)
- GI50 (DU-145): > 100 µM (inactive)
- GI50 (MDA-MB-435): > 100 µM (inactive)
- GI50 (CCRF-CEM): > 100 µM (inactive)
- GI50 (LOX IMVI): > 100 µM (inactive)
- GI50 (KM12): > 100 µM (inactive)
- GI50 (RXF 393): > 100 µM (inactive)
- GI50 (SNB-19): > 100 µM (inactive)
- GI50 (COLO 205): > 100 µM (inactive)
- GI50 (OVCAR-5): > 100 µM (inactive)
- GI50 (M14): > 100 µM (inactive)
- GI50 (SK-MEL-28): > 100 µM (inactive)
- GI50 (ACHN): > 100 µM (inactive)
- GI50 (K562): > 100 µM (inactive)
- GI50 (SF-268): > 100 µM (inactive)
- GI50 (NCI/ADR-RES): > 100 µM (inactive)
- GI50 (MOLT-4): > 100 µM (inactive)
- GI50 (MDA-N): > 100 µM (inactive)
- GI50 (786-0): > 100 µM (inactive)
- GI50 (SN12C): > 100 µM (inactive)
- GI50 (NCI-H460): > 100 µM (inactive)
- GI50 (OVCAR-4): > 100 µM (inactive)
- GI50 (RPMI-8226): > 100 µM (inactive)
- GI50 (OVCAR-8): > 100 µM (inactive)
- GI50 (UACC-62): > 100 µM (inactive)
- GI50 (SR): > 100 µM (inactive)

SMILES: COc1ccc2c(c1)[n+]([O-])c1ccccc1[n+]2[O-]
- GI50 (NCI-H226): 26.4 µM (inactive) and 27.2 µM (inactive)
- GI50 (EKVX): 34 µM (inactive) and 17.5 µM (inactive)
- GI50 (SW-620): 24.7 µM (inactive) and 29.9 µM (inactive)
- GI50 (MDA-MB-231): 29.7 µM (inactive) and 37.7 µM (inactive)
- GI50 (SF-295): 21.6 µM (inactive) and 39.8 µM (inactive)
- GI50 (UO-31): 10.3 µM (inactive) and 10.2 µM (inactive)
- GI50 (HCT-116): 31.5 µM (inactive) and 47.2 µM (inactive)
- GI50 (SK-OV-3): 24.7 µM (inactive)
- GI50 (NCI-H23): 24.7 µM (inactive) and 37.5 µM (inactive)
- GI50 (HT-29): 29.9 µM (inactive) and 51.5 µM (inactive)
- GI50 (HCC 2998): 29.1 µM (inactive)
- GI50 (SK-MEL-2): 26.9 µM (inactive) and 21.8 µM (inactive)
- GI50 (IGROV-1): 5.9 µM (inactive)
- GI50 (A549): 11 µM (inactive) and 21.7 µM (inactive)
- GI50 (U-251): 22.6 µM (inactive) and 37.4 µM (inactive)
- GI50 (HOP-92): 47.1 µM (inactive)
- GI50 (TK-10): 34.1 µM (inactive) and 31.5 µM (inactive)
- GI50 (SK-MEL-5): 18.4 µM (inactive) and 24.1 µM (inactive)
- GI50 (HCT-15): 15.1 µM and 28.2 µM
- GI50 (OVCAR-3): 36.1 µM (inactive) and 44.8 µM (inactive)
- GI50 (CCRF-CEM): 22.8 µM (inactive) and 17.9 µM (inactive)
- GI50 (KM12): 40.5 µM (inactive) and 22.4 µM (inactive)
- GI50 (COLO 205): 33.2 µM (inactive) and 19.1 µM (inactive)
- GI50 (OVCAR-5): 38.7 µM (inactive) and 65.9 µM (inactive)
- GI50 (SK-MEL-28): 78.7 µM (inactive)
- GI50 (Malme-3M): 38.7 µM (inactive) and 37.7 µM (inactive)
- GI50 (NCI/ADR-RES): 29.9 µM (inactive) and 53.3 µM (inactive)
- GI50 (HOP-62): 29.1 µM (inactive) and 36.8 µM (inactive)
- GI50 (SNB-75): 70.1 µM (inactive) and 35.2 µM (inactive)
- GI50 (MDA-N): 73.8 µM (inactive)
- GI50 (SN12C): 28.6 µM (inactive) and 21 µM (inactive)
- GI50 (OVCAR-4): 25 µM (inactive)
- GI50 (RPMI-8226): 20.3 µM (inactive) and 19.5 µM (inactive)
- GI50 (OVCAR-8): 18.5 µM (inactive) and 17.2 µM (inactive)
- GI50 (UACC-62): 23.7 µM (inactive) and 18.5 µM (inactive)
- GI50 (NCI-H522): 12.6 µM (inactive) and 14.6 µM (inactive)

SMILES: CN(C)c1cccc2c1C(=O)C=CC21c2ccc(N(C)C)c3c(N(C)C)ccc(c23)C(c2ccccc2)C1c1ccccc1 (stereo unspecified)
- GI50 (NCI-H226): 12.7 µM (inactive)
- GI50 (EKVX): 22.2 µM (inactive)
- GI50 (SW-620): 19.8 µM (inactive)
- GI50 (MCF7): 17.9 µM (inactive)
- GI50 (A498): 6.68 µM (inactive)
- GI50 (MDA-MB-231): 8.75 µM (inactive)
- GI50 (SF-295): 14.5 µM (inactive)
- GI50 (UO-31): 4.8 µM (inactive)
- GI50 (HCT-116): 21.3 µM (inactive)
- GI50 (SK-OV-3): 11.4 µM (inactive)
- GI50 (NCI-H23): 24.7 µM (inactive)
- GI50 (HT-29): 14.9 µM (inactive)
- GI50 (HCC 2998): 17.6 µM (inactive)
- GI50 (IGROV-1): 12 µM (inactive)
- GI50 (PC-3): 9.71 µM (inactive)
- GI50 (A549): 27.5 µM (inactive)
- GI50 (CAKI-1): 1.64 µM (inactive)
- GI50 (U-251): 10.5 µM (inactive)
- GI50 (HOP-92): 8.73 µM (inactive)
- GI50 (TK-10): 12 µM (inactive)
- GI50 (SK-MEL-5): 14.2 µM (inactive)
- GI50 (UACC-257): 12.6 µM (inactive)
- GI50 (HL-60): 3.34 µM (inactive)
- GI50 (HCT-15): 27.3 µM
- GI50 (OVCAR-3): 12.6 µM (inactive)
- GI50 (Hs-578T): 10 µM (inactive)
- GI50 (SF-539): 12.1 µM (inactive)
- GI50 (DU-145): 42.5 µM (inactive)
- GI50 (MDA-MB-435): 15 µM (inactive)
- GI50 (CCRF-CEM): 4.86 µM (inactive)
- GI50 (LOX IMVI): 15.2 µM (inactive)
- GI50 (KM12): 14.3 µM (inactive)
- GI50 (RXF 393): 13 µM (inactive)
- GI50 (SNB-19): 16.3 µM (inactive)
- GI50 (COLO 205): 11.3 µM (inactive)
- GI50 (OVCAR-5): 28.1 µM (inactive)
- GI50 (M14): 16.7 µM (inactive)
- GI50 (SK-MEL-28): 17.5 µM (inactive)
- GI50 (Malme-3M): 18 µM (inactive)
- GI50 (ACHN): 13.1 µM (inactive)
- GI50 (K562): 18.3 µM (inactive)
- GI50 (SF-268): 12.9 µM (inactive)
- GI50 (NCI/ADR-RES): 22.6 µM (inactive)
- GI50 (MOLT-4): 0.592 µM (active)
- GI50 (HOP-62): 17.6 µM (inactive)
- GI50 (SNB-75): 8.26 µM (inactive)
- GI50 (MDA-N): 16.4 µM (inactive)
- GI50 (786-0): 9.44 µM (inactive)
- GI50 (SN12C): 10.8 µM (inactive)
- GI50 (NCI-H460): 24 µM (inactive)
- GI50 (OVCAR-4): 3.85 µM (inactive)
- GI50 (RPMI-8226): 15.9 µM (inactive)
- GI50 (OVCAR-8): 13.5 µM (inactive)
- GI50 (UACC-62): 20.1 µM (inactive)
- GI50 (NCI-H522): 21.3 µM (inactive)
- GI50 (SR): 7.82 µM (inactive)
